# From ChEMBL document CHEMBL1158196, “Isolation and synthesis of novel farnesyl protein transferase inhibitors, valinoctins A and B, from Streptomyces strain MJ858-NF3” (J Nat Prod, 1996)
# Test: Inhibition of bovine brain FPTase after 20 mins
# Design: species or system Bos taurus
row,IC50,Structure (SMILES)
1,0.9 µg/mL,CCCCC[C@@H](N)[C@H](O)C(=O)N[C@H](C(=O)O)C(C)C [VALINOCTIN A]
2,1 µg/mL,CCC(C)CC[C@@H](N)[C@H](O)C(=O)N[C@H](C(=O)O)C(C)C (some centres not stated) [VALINOCTIN B]
